Experiments:
Type in all cases: in vivo
Heliothis virescens = test: Action against Heliothis virescens caterpillars (sprayed soybean plants); details: 144 h, 400 ppm spray on young soybean plants, 10 caterpillars in the first stage, evaluation 6 days later, read-out: percentage reduction in population and percentage reduction in feeding damage (% activity)
Protocol: (§1) Young soybean plants are sprayed with an aqueous emulsion spray mixture comprising 400 ppm of test compound. After the spray-coating has dried, the soybean plants are populated with 10 caterpillars of Heliothis virescens in the first stage and placed in a plastics container. Evaluation is made 6 days later. The percentage reduction in population and the percentage reduction in feeding damage (% activity) are determined by comparing the number of dead caterpillars and the feeding damage on the treated plants with that on the untreated plants.

Plutella xylostella = test: Action against Plutella xylostella caterpillars (sprayed cabbage plants); details: 72 h, 400 ppm spray on young cabbage plants, 10 caterpillars in the third stage, evaluation 3 days later, read-out: percentage reduction in population and percentage reduction in feeding damage (% activity)
Protocol: as §1, with “cabbage” for “soybean”, “Plutella xylostella” for “Heliothis virescens”, “third” for “first”, “3” for “6”

Spodoptera littoralis = test: Action against Spodoptera littoralis (sprayed soybean plants); details: 72 h, 400 ppm spray on young soybean plants, 10 caterpillars in the first stage, 3 days later, read-out: percentage reduction in population and percentage reduction in feeding damage (% activity)
Protocol: Young soybean plants are sprayed with an aqueous emulsion spray mixture comprising 400 ppm of test compound and, after the spray-coating has dried, the plants are populated with 10 caterpillars of Spodoptera littoralis in the first stage and then placed in a plastics container. 3 days later, the percentage reduction in population and the percentage reduction in feeding damage (% activity) are determined by comparing the number of dead caterpillars and the feeding damage on the treated plants with that on untreated plants.

Measured: inhibition at 400 ppm

CCn1nnc(-c2ccc(OCCCOc3c(Cl)cc(OCC=C(Cl)Cl)cc3Cl)cc2)n1 [Compound 1.4, 5-(4-{3-[2,6-dichloro-4-(3,3-dichloro-allyloxy)-phenoxy]-propoxy}-phenyl)-2-ethyl-2H-tetrazole]
> 80%: all assays above

ClC(Cl)=CCOc1cc(Cl)c(OCCCOc2ccc(-c3noc(Cl)n3)cc2)c(Cl)c1 [Compound 1.16, 5-chloro-3-(4-{3-[2,6-dichloro-4-(3,3-dichloro-allyloxy)-phenoxy]-propoxy}-phenyl)-[1,2,4]oxadiazole]
> 80%: all assays above

ClC(Cl)=CCOc1cc(Cl)c(OCCCOc2ccc(-c3cc(Cl)on3)cc2)c(Cl)c1 [Compound 1.17, 5-chloro-3-(4-{3-[2,6-dichloro-4-(3,3-dichloro-allyloxy)-phenoxy]-propoxy}-phenyl)-isoxazole]
> 80%: all assays above

Source: patent US7608631B2, “4-(3,3-dihalo-allyloxy) phenol derivatives having pesticidal properties” (Syngenta Crop Protection, Inc., priority 2002, dated 2009)
